What was measured:
[1] = molecular target: T1, homoserine kinase (CglThrB-A20G) (Corynebacterium glutamicum, UniProt P07128, A20G); assay: steady-state enzyme kinetics, ADP colorimetric assay; assay type: biochemical
T1 sequence (P07128 1-309 A20G): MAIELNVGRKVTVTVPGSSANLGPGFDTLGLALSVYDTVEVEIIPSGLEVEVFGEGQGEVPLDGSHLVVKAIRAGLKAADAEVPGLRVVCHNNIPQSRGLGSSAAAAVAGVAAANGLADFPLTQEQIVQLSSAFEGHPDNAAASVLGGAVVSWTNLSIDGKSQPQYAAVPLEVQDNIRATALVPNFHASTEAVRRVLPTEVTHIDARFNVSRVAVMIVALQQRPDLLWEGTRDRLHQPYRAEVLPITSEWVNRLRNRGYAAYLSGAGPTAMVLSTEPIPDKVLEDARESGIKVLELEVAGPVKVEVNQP

[2] = molecular target: T2, homoserine kinase (CglThrB-WT) (Corynebacterium glutamicum, UniProt P07128); assay: as above; assay type: biochemical
T2 sequence (P07128 2-309): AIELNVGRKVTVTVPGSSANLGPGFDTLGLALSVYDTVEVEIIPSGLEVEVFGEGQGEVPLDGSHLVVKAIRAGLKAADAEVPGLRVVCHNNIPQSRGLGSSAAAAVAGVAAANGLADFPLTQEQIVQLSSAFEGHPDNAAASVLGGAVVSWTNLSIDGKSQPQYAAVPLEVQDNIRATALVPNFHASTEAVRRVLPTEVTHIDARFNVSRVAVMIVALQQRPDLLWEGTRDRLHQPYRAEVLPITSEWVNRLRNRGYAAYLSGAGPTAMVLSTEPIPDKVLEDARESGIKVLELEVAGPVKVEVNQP

In the case of `C[C@@H](O)[C@H](N)C(=O)O` [L-threonine], the Ki [1] is reported as 25.2 mM and the Ki [2] is reported as 4.73 mM.

Reference: paper PMC6045374 (ACS Omega, 2018)
